Results reported in patent US11076595B2, “1-(n,n-disubstituted carbamoyl) 4-(substituted sulfonyl)triazolin-5-one derivative, 4-(n,n-disubstituted carbamoyl) 1-(substituted sulfonyl)triazolin-5-one derivative, and herbicide containing said derivative as active ingredient” (HOKKO CHEMICAL INDUSTRY CO., LTD., priority 2017, dated 2021).

Assays:
Type in all cases: in vivo
Echinochloa crus-galli [1] = experiment: Test Example 11: herbicidal effect test by soil treatment in paddy field; settings: 120 g/10a active ingredient, 14 days after treatment
Method in brief: (§1)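 Puddled paddy soil with N:P:K 17:17:17 fertilizer in Wagner pots; 30 seeds per species sown at 0–1 cm, flooded to about 3 cm, kept in a glass greenhouse. Water-diluted emulsifiable concentrate dripped in immediately after sowing at 120 g a.i. per 10 are. Suppression from dry weight versus untreated at 14 days.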

Lindernia pyxidaria [2] = experiment: as above; settings: 120 g/10a active ingredient, 14 days after treatment
Method in brief: as §1

Monochoria vaginalis [3] = experiment: as above; settings: 120 g/10a active ingredient, 14 days after treatment
Method in brief: as §1

Scirpus juncoides [4] = experiment: as above; settings: 120 g/10a active ingredient, 14 days after treatment
Method in brief: as §1

Echinochloa crus-galli [5] = experiment: Test Example 12: herbicidal effect test by treatment during growing period in paddy field; settings: 120 g/10a; treatment seven days after sowing in flooded paddy pot; assessed 14 days after treatment
Method in brief: (§2)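 Puddled, fertilized paddy soil in Wagner pots, sown with 30 seeds per species at 0–1 cm and flooded to ~3 cm in a glass greenhouse. Emulsifiable concentrate dripped into water 7 days after sowing at 120 g a.i. per 10 are. Suppression % from dry weight vs untreated, 14 days post-treatment, two replicates.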

Lindernia pyxidaria [6] = experiment: as above; settings: 120 g/10a; treatment seven days after sowing in flooded paddy pot; assessed 14 days after treatment
Method in brief: as §2

Monochoria vaginalis [7] = experiment: as above; settings: 120 g/10a; treatment seven days after sowing in flooded paddy pot; assessed 14 days after treatment
Method in brief: as §2

Scirpus juncoides [8] = experiment: as above; settings: 120 g/10a; treatment seven days after sowing in flooded paddy pot; assessed 14 days after treatment
Method in brief: as §2

Amaranthus viridis [9] = experiment: Test Example 13: herbicidal effect test by soil treatment in upland field; settings: 120 g/10a, 14 days after treatment
Method in brief: (§3)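 Field alluvial soil in 36 cm^2 pots had 20 seeds of each weed mixed into its top 1 cm. One day after sowing, a water-diluted emulsifiable concentrate was sprayed onto the soil at 100 liter per 10 are (120 g active ingredient per 10 are), with two replicates. Weed suppression (%) was assessed after 14 days.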

Chenopodium album [10] = experiment: as above; settings: 120 g/10a, 14 days after treatment
Method in brief: as §3

Echinochloa crus-galli [11] = experiment: as above; settings: 120 g/10a, 14 days after treatment
Method in brief: as §3

crabgrass [12] = experiment: as above; settings: 120 g/10a, 14 days after treatment
Method in brief: as §3

Chenopodium album [13] = experiment: Test Example 14: herbicidal effect test by foliage treatment in upland field; settings: 7 days after sowing, 120 g/10a, 14 days after treatment
Method in brief: (§4)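 Post-sowing spray at day 7, 120 g a.i./10 are in 100 L water/10 are; alluvial soil pots, duplicate plots; endpoint day 14, % suppression from dry weight relative to untreated.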

crabgrass [14] = experiment: as above; settings: 7 days after sowing, 120 g/10a, 14 days after treatment
Method in brief: as §4

Amaranthus viridis [15] = experiment: as above; settings: 7 days after sowing, 120 g/10a, 14 days after treatment
Method in brief: as §4

Echinochloa crus-galli [16] = experiment: as above; settings: 7 days after sowing, 120 g/10a, 14 days after treatment
Method in brief: as §4

| Compound | Weed suppression rate (%) Echinochloa crus-galli (Echinochloa crus-galli [1]) | Weed suppression rate (%) Lindemia pyxidaria (Lindernia pyxidaria [2]) | Weed suppression rate (%) Monochoria vaginalis (Monochoria vaginalis [3]) | Weed suppression rate (%) Scirpus juncoides (Scirpus juncoides [4]) | Weed suppression rate (%) Echinochloa crus-galli (Echinochloa crus-galli [5]) | Weed suppression rate (%) Lindemia pyxidaria (Lindernia pyxidaria [6]) | Weed suppression rate (%) Monochoria vaginalis (Monochoria vaginalis [7]) | Weed suppression rate (%) Scirpus juncoides (Scirpus juncoides [8]) | herbicidal effect, Amaranthus viridis (Amaranthus viridis [9]) | herbicidal effect, Chenopodium album (Chenopodium album [10]) | herbicidal effect, Echinochloa crus-galli (Echinochloa crus-galli [11]) | herbicidal effect, Crabgrass (crabgrass [12]) | herbicidal effect, Chenopodium album (Chenopodium album [13]) | herbicidal effect, Crabgrass (crabgrass [14]) | herbicidal effect, Amaranthus viridis (Amaranthus viridis [15]) | herbicidal effect, Echinochloa crus-galli (Echinochloa crus-galli [16]) |
| --- | --- | --- | --- | --- | --- | --- | --- | --- | --- | --- | --- | --- | --- | --- | --- | --- |
| CC(C)N(C(=O)n1cnn(S(C)(=O)=O)c1=O)c1ccc(F)cc1Cl [Compound 11-19] | 90% | 80% | 80% | 90% | 90% | 80% | 80% | 90% | 90% | 80% | 80% | 90% | 80% | 90% | 90% | 80% |
| CC(C)N(C(=O)n1cnn(S(=O)(=O)C(C)C)c1=O)c1ccc(F)c(F)c1F [Compound 11-62] | 100% | 100% | 90% | 100% | 100% | 80% | 100% | 100% | 100% | 60% | 70% | 70% | 90% | 100% | 100% | 100% |
| CC(C)N(C(=O)n1cnn(S(=O)(=O)N(C)C)c1=O)c1ccc(F)cc1Cl [Compound 11-1071] | 90% | 80% | 80% | 90% | 90% | 80% | 80% | 90% | 90% | 80% | 80% | 90% | 80% | 90% | 90% | 80% |
| Cc1ccc(N(C(=O)n2cnn(S(C)(=O)=O)c2=O)C(C)C)c(F)c1 [Compound 11-26] | 90% | 80% | 80% | 90% | 90% | 80% | 80% | 90% | 90% | 80% | 80% | 90% | 80% | 90% | 90% | 80% |
| CCC(C)S(=O)(=O)n1ncn(C(=O)N(c2ccc(F)cc2F)C(C)C)c1=O (stereo not shown) [Compound 11-93] | 90% | 90% | 90% | 90% | 90% | 80% | 90% | 90% | 90% | 80% | 80% | 90% | 80% | 90% | 90% | 80% |
| CC(C)N(C(=O)n1cnn(S(=O)(=O)C2CC2)c1=O)c1ccc(F)cc1F [Compound 11-142, 1-cyclopropylsulfonyl-N-(2,4-difluorophenyl)-N-isopropyl-5-oxo-1,2,4-triazole-4-carboxamide] | 100% | 100% | 90% | 100% | 100% | 80% | 90% | 80% | 90% | 80% | 80% | 90% | 80% | 90% | 90% | 80% |
| CCS(=O)(=O)n1ncn(C(=O)N(c2ccc(F)cc2F)C(C)C)c1=O [Compound 11-46] | 100% | 100% | 100% | 90% | 100% | 100% | 90% | 90% | 100% | 100% | 100% | 100% | 90% | 100% | 60% | 100% |
| Cc1cc(C)c(S(=O)(=O)n2ncn(C(=O)N(c3ccccc3)C(C)C)c2=O)c(C)c1 [Compound 11-852] | 100% | 90% | 90% | 90% | 80% | 90% | 90% | 90% | 60% | 60% | 80% | 80% | 70% | 90% | 60% | 60% |
| CC(C)N(C(=O)n1cnn(S(=O)(=O)c2c(F)c(F)c(F)c(F)c2F)c1=O)c1ccccc1 [Compound 11-800] | 90% | 90% | 80% | 90% | 90% | 60% | 90% | 90% | 70% | 70% | 60% | 90% | 100% | 90% | 100% | 90% |
| Cc1ccc(S(=O)(=O)n2ncn(C(=O)N(c3ccc(F)cc3F)C(C)C)c2=O)cc1 [Compound 11-637] | 100% | 100% | 100% | 90% | 100% | 90% | 90% | 90% | 40% | 40% | 100% | 90% | 0% | 80% | 0% | 80% |
